Data published in patent US11319324B2, “Pyrazolo-pyrrolo-pyrimidine-dione derivatives as P2X3 inhibitors” (Bayer Aktiengesellschaft, priority 2017, dated 2022).

What was measured:
Assay type in all cases: cell-based
human P2X3 receptor [1] = biological target: T1, human P2X3 receptor (Homo sapiens, UniProt P56373); assay: Intracellular calcium measurement, antagonist activity at human P2X3 receptors (hP2X3 1321N1), Fluo8; design: expressed in transfected cells; host or cells: human astrocytoma 1321N1 (1312N1 [sic]); details: column 3); 1321N1 cells, human P2X3, Fluo8, agonist ATP at EC50
T1 sequence (P56373 1-397): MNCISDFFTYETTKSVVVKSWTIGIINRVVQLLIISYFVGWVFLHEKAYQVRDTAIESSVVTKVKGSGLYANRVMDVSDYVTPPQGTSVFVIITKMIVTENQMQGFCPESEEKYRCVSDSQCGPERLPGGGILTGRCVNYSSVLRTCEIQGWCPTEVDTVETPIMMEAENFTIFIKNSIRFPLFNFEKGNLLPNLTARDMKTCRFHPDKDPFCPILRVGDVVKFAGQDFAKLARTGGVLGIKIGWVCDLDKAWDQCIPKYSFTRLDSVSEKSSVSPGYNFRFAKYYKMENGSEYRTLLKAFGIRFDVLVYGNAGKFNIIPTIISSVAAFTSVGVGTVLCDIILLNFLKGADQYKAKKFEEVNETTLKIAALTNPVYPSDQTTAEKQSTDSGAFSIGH
Protocol: 3) And 4) Intracellular Calcium Measurement to Compare Antagonist Activity at Human P2X3 Receptors (hP2X3 1321N1) and at Human P2X2/3 Receptors (hP2X23 1321N1)
The comparison of antagonistic activity at the P2X3 versus the P2X2/3 receptor of the compounds of the invention were performed by use of recombinant cell lines. These cell lines derived originally from the human astrocytoma cell line […] (Macintyre E H, Pontén J, Vatter A E. Acta Pathol Microbiol Scand A. 1972; 80(2):267-83). The cell lines are stably transfected with the human P2X3 receptor forming homotrimeric P2X3 receptors or are co-transfected with P2X2 and P2X3 forming heterotrimeric P2X2/3 receptors. Stimulation of the receptors with the agonist ATP leads to a conformational change of the receptors and influx of extracellular calcium ions through the open ion channel. The cytoplasmatic calcium transient is detected via the calcium sensitive dye Fluo8. The strength of Fluo8 fluorescence signal corresponds to the level of receptor activation. An inhibitor would decrease the signal depending on its potency and concentration. Fluorescence was measured by use of a suitable fluorescence reader.
On the day before the assay, the cells were plated in culture medium (DMEM high glucose, 10% FCS, 1% MEM non-essential amino acids, 4 mM Glutamax) in 384-well poly-D-lysine coated microtiter plates and kept in a cell incubator (96% humidity, 5% v/v CO2, 37° C.). On the day of the assay medium was exchanged by Fluo8 containing buffer and incubated for 60 minutes. Test compounds were added at various concentrations and plates were incubated for 10 minutes. In the fluorescence reader a 3 seconds baseline measurement was performed and the agonist ATP was applied at EC50 concentration of the respective receptor during constant fluorescence measurement for 120 seconds.

human P2X2/3 receptors = biological target: T2, human P2X2/3 receptors (Homo sapiens, UniProt P56373+Q9UBL9); assay: Intracellular calcium measurement, antagonist activity at human P2X2/3 receptors (hP2X23 1321N1), Fluo8; details: for IC50: column 4); 1321N1 cells, human P2X2/3, Fluo8, agonist ATP at EC50; read-out: 4) hP2X2/3 IC50 [nM] (1321N1); for hP2X23/hP2X3* Selectivity (1321N1): ratio of column 4) hP2X2/3 to column 3) hP2X3, 1321N1
T2 construct: expressed in transfected cells; host or cells: human astrocytoma 1321N1 (1312N1 [sic])
T2 sequence (P56373 1-397): T1 sequence (P56373 1-397)
T2 sequence (Q9UBL9 1-471): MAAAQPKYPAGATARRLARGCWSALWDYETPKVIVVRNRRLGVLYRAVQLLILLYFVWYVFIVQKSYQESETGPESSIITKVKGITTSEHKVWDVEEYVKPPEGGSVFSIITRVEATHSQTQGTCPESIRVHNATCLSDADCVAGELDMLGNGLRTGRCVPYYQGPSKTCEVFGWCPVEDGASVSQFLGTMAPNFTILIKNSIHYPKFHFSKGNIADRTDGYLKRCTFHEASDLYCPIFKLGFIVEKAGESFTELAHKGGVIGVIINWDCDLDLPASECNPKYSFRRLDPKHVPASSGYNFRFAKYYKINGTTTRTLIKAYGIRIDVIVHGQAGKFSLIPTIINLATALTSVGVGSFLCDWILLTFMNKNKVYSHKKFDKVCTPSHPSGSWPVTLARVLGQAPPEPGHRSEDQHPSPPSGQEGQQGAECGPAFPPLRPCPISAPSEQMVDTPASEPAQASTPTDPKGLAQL
Method in brief: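 Inhibition of ATP-triggered Ca2+ transients is measured in 1321N1 cells expressing P2X3 homotrimers or P2X2/3 heterotrimers.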

human P2X3 receptor [2] = biological target: T1, human P2X3 receptor; assay: Intracellular calcium measurement to assess antagonist activity at human P2X3 receptors (hP2X3 CHO), photina luminescence; design: expressed in transfected cells; host or cells: Chinese hamster ovary (CHO) cells; details: column 2), CHO cells, agonist α,β-methylene-ATP at EC50
Method in brief: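 CHO cells stably expressing human P2X3 and mitochondrial photina, plated the day before at 30 °C, then loaded 3 h at 37 °C in 2 mM Ca-tyrode buffer with 5 μg/ml coelenterazine. Agonist-evoked calcium luminescence read immediately; inhibition seen as signal decrease.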

IC50 (human P2X3 receptor [1]) | IC50 (human P2X2/3 receptors) | hP2X23/hP2X3* Selectivity (1321N1) (human P2X2/3 receptors) | IC50 (human P2X3 receptor [2]) | SMILES
185 nM | 9050 nM | 49 | 102 nM | CCc1cc2n(CC(=O)Nc3ccc(F)cn3)c3c(c(=O)n2n1)CN(CC1CCCO1)C3=O (racemic) [Example 77, 2-{2-ethyl-5,8-dioxo-6-[(±)-tetrahydrofuran-2-ylmethyl]-5,6,7,8-tetrahydro-4H-pyrazolo[1,5-a]pyrrolo[3,4-d]pyrimidin-4-yl}-N-(5-fluoropyridin-2-yl)acetamide]
38 nM | 3950 nM | 105 | 44 nM | CC(C)N1Cc2c(n(CC(=O)Nc3ccc(F)cn3)c3cc(C(=O)Nc4ccccc4F)nn3c2=O)C1=O [Example 200]
40 nM | 3350 nM | 84 | 22 nM | CC(C)N1Cc2c(n(CC(=O)Nc3ccc(F)cn3)c3cc(C(=O)NC4CCCC4)nn3c2=O)C1=O [Example 185]
793 nM | > 32000 nM | >40 | 493 nM | CCc1cc2n(CC(=O)Nc3ccc(F)cn3)c3c(c(=O)n2n1)CN(C1CCN(C)C1)C3=O (stereo not shown) [Example 253]
37 nM | 6950 nM | 190 | 73 nM | CC(C)N1Cc2c(n(CC(=O)Nc3ccc(F)cn3)c3cc(NCC4CC4)nn3c2=O)C1=O [Example 175]
33 nM | 4900 nM | 148 | 27 nM | CC(C)Nc1cc2n(CC(=O)Nc3ccc(F)cn3)c3c(c(=O)n2n1)CN(C(C)C)C3=O [Example 171]
26 nM | 5050 nM | 192 | 64 nM | O=C(Cn1c2c(c(=O)n3nc(C4CCOCC4)cc13)CN(C1CCCC1)C2=O)Nc1ccc(F)cn1 [Example 92]
39 nM | 3050 nM | 78 | 22 nM | CC(C)N1Cc2c(n(CC(=O)Nc3ccc(F)cn3)c3cc(C4CCN(C(=O)OC(C)(C)C)C4)nn3c2=O)C1=O (racemic) [Example 226, tert-butyl(±)-3-[4-{2-[(5-fluoropyridin-2-yl)amino]-2-oxoethyl}-5,8-dioxo-6-(propan-2-yl)-5,6,7,8-tetrahydro-4H-pyrazolo[1,5-a]pyrrolo[3,4-d]pyrimidin-2-yl]pyrrolidine-1-carboxylate]
440 nM | 11300 nM | 26 | 400 nM | CCc1cc2n(CC(=O)Nc3ccc(F)cn3)c3c(c(=O)n2n1)CN(C[C@H]1CN(C)CCO1)C3=O [Example 255, 2-(2-ethyl-6-{[(2R)-4-methylmorpholin-2-yl]methyl}-5,8-dioxo-5,6,7,8-tetrahydro-4H-pyrazolo[1,5-a]pyrrolo[3,4-d]pyrimidin-4-yl)-N-(5-fluoropyridin-2-yl)acetamide]
6 nM | 1950 nM | 328 | 4 nM | CC(C)N1Cc2c(n(CC(=O)Nc3ccc(F)cn3)c3cc(C4CCCCC4)nn3c2=O)C1=O [Example 85]
16 nM | 9300 nM | 581 | 35 nM | COC[C@H](C)N1Cc2c(n(CC(=O)Nc3ccc(F)cn3)c3cc(C(=O)N4CCCCC4)nn3c2=O)C1=O [Example 198]
650 nM | > 32000 nM | >49 | 550 nM | CCc1cc2n(CC(=O)Nc3ccc(F)cn3)c3c(c(=O)n2n1)CN(CC1CCNC1)C3=O.Cl (stereo not shown) [Example 238]
104 nM | 8900 nM | 85 | 58 nM | CCNc1cc2n(CC(=O)Nc3ccc(F)cn3)c3c(c(=O)n2n1)CN(C(C)C)C3=O [Example 173]
9 nM | 2350 nM | 250 | 17 nM | CC(C)N1Cc2c(n(CC(=O)Nc3ccc(F)cn3)c3cc(NC4CCCC4)nn3c2=O)C1=O [Example 168]
740 nM | > 32000 nM | >43 | 185 nM | CCc1cc2n(CC(=O)Nc3ccc(F)cn3)c3c(c(=O)n2n1)CN(C[C@@H]1COCCN1)C3=O [Example 248, 2-{2-ethyl-6-[(3R)-morpholin-3-ylmethyl]-5,8-dioxo-5,6,7,8-tetrahydro-4H-pyrazolo[1,5-a]pyrrolo[3,4-d]pyrimidin-4-yl}-N-(5-fluoropyridin-2-yl)acetamide]
13 nM | 2110 nM | 169 | 11 nM | CC(C)N1Cc2c(n(CC(=O)Nc3ccc(F)cn3)c3cc(-c4ccncc4)nn3c2=O)C1=O [Example 149, 2-[5,8-dioxo-6-(propan-2-yl)-2-(pyridin-4-yl)-5,6,7,8-tetrahydro-4H-pyrazolo[1,5-a]pyrrolo[3,4-d]pyrimidin-4-yl]-N-(5-fluoropyridin-2-yl)acetamide]
265 nM | > 32000 nM | >121 | 125 nM | COCc1cc2n(CC(=O)Nc3ccc(F)cn3)c3c(c(=O)n2n1)CN(C(C)C)C3=O [Example 57]
63 nM | 1950 nM | 31 | 32 nM | CCc1cc2n(CC(=O)Nc3ccc(F)cn3)c3c(c(=O)n2n1)CN(CC1CCN(C(=O)OC(C)(C)C)C1)C3=O (stereo not shown) [Example 80]
120 nM | > 20400 nM | >170 | 59 nM | CC(C)N1Cc2c(n(CC(=O)Nc3ccc(F)cn3)c3cc(NCC(F)F)nn3c2=O)C1=O [Example 170]
587 nM | > 32000 nM | >55 | 245 nM | CC(C)N1Cc2c(n(CC(=O)Nc3ccc(F)cn3)c3cc(NC(=O)CO)nn3c2=O)C1=O [Example 289, N-[4-{2-[(5-fluoropyridin-2-yl)amino]-2-oxoethyl}-5,8-dioxo-6-(propan-2-yl)-5,6,7,8-tetrahydro-4H-pyrazolo[1,5-a]pyrrolo[3,4-d]pyrimidin-2-yl]-2-hydroxyacetamide]
323 nM | > 32000 nM | >99 | 110 nM | CC(=O)Nc1cc2n(CC(=O)Nc3ccc(F)cn3)c3c(c(=O)n2n1)CN(C(C)C)C3=O [Example 282, 2-[2-(acetylamino)-5,8-dioxo-6-(propan-2-yl)-5,6,7,8-tetrahydro-4H-pyrazolo[1,5-a]pyrrolo[3,4-d]pyrimidin-4-yl]-N-(5-fluoropyridin-2-yl)acetamide]
347 nM | > 32000 nM | >92 | 165 nM | CC(C)N1Cc2c(n(CC(=O)Nc3ccc(F)cn3)c3cc(NC(=O)C(F)F)nn3c2=O)C1=O [Example 283]
